Laboratory results as given in publication PMC7320160, “In planta study of photosynthesis and photorespiration using NADPH and NADH/NAD^+ fluorescent protein sensors” (Nature Communications, 2020).

Molecular target: T1, iNAP1
T1 construct: gene rex; 6xHis N-terminal, E. coli BL21(DE3) pLys
Assay: sensor fluorescence titration, excitation […] nm, emission […] nm
Format: binding
Settings: 22 °C, in vitro, pseudocytosol medium pH 7.5, 0.5 μM sensor

NC(=O)C1=CN([C@@H]2O[C@H](COP(=O)(O)OP(=O)(O)OC[C@H]3O[C@@H](n4cnc5c(N)ncnc54)[C@H](OP(=O)(O)O)[C@@H]3O)[C@@H](O)[C@H]2O)C=CC1 [NADPH]
Kd: 300 nM
